Measured values: patent publication US12509460B2 (Skyhawk Therapeutics, Inc., priority 2019, dated 2025)
Like-named read-outs stand apart in the source and are kept apart here.

Legend:
[1] = system: MDR1; test: in vitro; settings: dog, MDCK-MDR1, pH 7.4
Procedure: (§1) Example A13: Assessment of Blood-Brain-Barrier (BBB) Penetration Potential Via an MDCK-MDR1 Permeability Assay
(§2) The permeability of compounds is assessed for BBB penetration potential by use of an MDCK-MDR1 assay (Catalog EA203) performed by Absorption Systems, Exton PA.
(§3) Experimental Procedure: MDR1-MDCK cell monolayers are grown to confluence on collagen-coated, microporous membranes in 12-well assay plates. The permeability assay buffer is Hanks' balanced salt solution containing 10 mM HEPES and 15 mM glucose at a pH of 7.4. The buffer in the receiver chamber also contained 1% bovine serum albumin. The dosing solution concentration is 5 μM of test article in the assay buffer. Cell monolayers are dosed on the apical side (A-to-B) or basolateral side (B-to-A) and incubated at 37° C. with 5% CO2 in a humidified incubator. Samples are taken from the donor and receiver chambers at 120 minutes. Each determination is performed in duplicate. The flux of lucifer yellow is also measured post-experimentally for each monolayer to ensure no damage is inflicted to the cell monolayers during the flux period. All samples are assayed by LC-MS/MS using electrospray ionization.
(§4) The apparent permeability (Papp) and percent recovery are calculated as follows:
(§5) Analytical Method: Liquid Chromatography. Column: Waters ACQUITY UPLC BEH Phenyl 30 ×2.1 mm, 1.7 μm; M.P. Buffer. 25 mM ammonium formate buffer, pH 3.5; Aqueous Reservoir (A): 90% water, 10% buffer, Organic Reservoir (B): 90% acetonitrile, 10% buffer, Flow Rate: 0.7 mL/minute; Gradient Program:
(§6) • Total Run Time: 1.00 minute • Autosampler. 2 μL injection volume • Wash1: water/methanol/2-propanol:1/1/1; with 0.2% formic acid • Wash2: 0.1% formic acid in water • Brain Penetration • Potential Classification: A-B Papp≥3.0 and Efflux Ratio <3.0: High • A-B Papp≥3.0 and 10≥Efflux Ratio >3.0: Moderate • A-B Papp≥3.0 and Efflux Ratio≥10: Low • A-B Papp<3.0: Low

[2] = system: MDR1 (P-gp); test: in vitro; settings: dog, MDCK-MDR1, pH 7.4
Procedure: as §1, §2, §3, §4, §5, §6

[3] = system: MDR1-MDCK cell monolayers; settings: dog, MDCK-MDR1, 120 min, 5 μM, pH 7.4
Procedure: as §1, §2, §3, §4, §5, §6

[4] = system: SMN protein in spinal muscular atrophy (SMA) patient fibroblasts (GM03813, Coriell); test: SMN protein assay, Mesoscale Discovery (MSD); assay type: cell-based, human; settings: for EC50: read-out: SMN2 protein EC50
How it was run: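 Absolute SMN levels were quantified by MSD against an SMN protein standard curve (1 μg/ml to 19.5 pg/ml) run on each plate. Samples were lysates of GM03813 patient fibroblasts (7000 cells/well) treated 48 hours with compound doses from 2.5 μM down to 0.6 nM.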

[5] = system: mHTT protein in GM04724 (CAG 70/20) Huntington's disease patient lymphoblast cells; test: mHTT protein assay, 2B7-MW1 assay via Mesoscale Discovery (MSD); assay type: cell-based, human
How it was run: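 Signal from the 2B7-MW1 antibody pair on MSD, rising with polyQ length and smaller HTT fragments, measured mHTT after 48 h compound exposure (0.6 nM–10 μM) in GM04724 cells. A parallel replicate plate gave CellTiter Glo viability.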

[6] = SMA patient fibroblasts GM03813, 48 hours, MSD
[7] = GM04724 Huntington's disease patient lymphoblasts
[8] = SMA patient fibroblasts (GM03813), 48 hours
[9] = GM04724 (CAG 70/20) Huntington's disease patient lymphoblasts

Row | Compound | efflux ratio at 120 min, 5 μM [1] | Papp A→B at 120 min, 5 μM [2] | Papp B→A at 120 min, 5 μM [2] | MDCK-MDR1: % Recov A-B [3] | MDCK-MDR1: % Recov B-A [3] | SMN2 protein EC50 [4, 6] | mHTT protein EC50 [5, 7] | SMN2 protein EC50 [4, 8] | mHTT protein EC50 [5, 9] | EC50 [4, 8] | EC50 [5, 9] | EC50 [4, 6] | EC50 [5, 7]
1 | CN(c1ccc(-c2cc3cc[nH]c(=O)c3s2)nn1)[C@@H]1C[C@H]2CC[C@H](N2)[C@@H]1F (single isomer, unassigned) [Compound 66A] | 51 | 0.09 ×10⁻⁶ cm/s | 4.4 ×10⁻⁶ cm/s | 93% | 100% | E (501 ≤ E ≤ 10.000) | E (501 ≤ E ≤ 10.000) |  |  |  |  |  | 
2 | CN(C)C(=O)c1cc(O)c(-c2ccc(N(C)[C@@H]3C[C@H]4CC[C@@H]([C@@H]3F)N4C)nn2)cc1F (single isomer, unassigned) [Compound 104A] | 35 | 1.23 ×10⁻⁶ cm/s | 43.1 ×10⁻⁶ cm/s | 106% | 105% |  |  | E (501 ≤ E ≤ 10.000) | E (501 ≤ E ≤ 10.000) |  |  |  | 
3 | CN(c1ccc(-c2cc3ncn(CC(F)(F)F)c(=O)c3cc2O)nn1)[C@@H]1C[C@H]2CCC[C@@H]([C@@H]1F)N2C (single isomer, unassigned) [Compound 109A] | 23 | 2.72 ×10⁻⁶ cm/s | 63.3 ×10⁻⁶ cm/s | 76% | 81% |  |  | E (501 ≤ E ≤ 10.000) | E (501 ≤ E ≤ 10.000) |  |  |  | 
4 | CN(c1ccc(-c2cc3oc(C(=O)N4CCC4)cc3cc2O)nn1)[C@@H]1C[C@H]2CC[C@@H]([C@@H]1F)N2C [Compound 107A, azetidin-1-yl(6-(6-(((1S,2S,3R,5R)-2-fluoro-8-methyl-8-azabicyclo[3.2.1]octan-3-yl)(methyl)amino)pyridazin-3-yl)-5-hydroxybenzofuran-2-yl)methanone] | 43 | 1.27 ×10⁻⁶ cm/s | 55.1 ×10⁻⁶ cm/s | 80% | 82% |  |  | E (501 ≤ E ≤ 10.000) | E (501 ≤ E ≤ 10.000) |  |  |  | 
5 | Cc1nc2cc(-c3ccc(N(C)[C@@H]4C[C@H]5CC[C@@H]([C@@H]4F)N5C)nn3)c(O)cc2c(=O)n1C [Compound 105A, 7-(6-(((1S,2S,3R,5R)-2-fluoro-8-methyl-8-azabicyclo[3.2.1]octan-3-yl)(methyl)amino)pyridazin-3-yl)-6-hydroxy-2,3-dimethylquinazolin-4(3H)-one] | 99 | 0.58 ×10⁻⁶ cm/s | 56.9 ×10⁻⁶ cm/s | 105% | 115% |  |  |  |  | 101 to 500 nM | 101 to 500 nM |  | 
6 | CN(c1ccc(-c2cn3c(=O)ccnc3cc2O)nn1)[C@H]1C[C@@H]2CC[C@@H](N2)[C@H]1F (single isomer, unassigned) [Compound 82B] | > 15 | < 0.21 ×10⁻⁶ cm/s | 3.28 ×10⁻⁶ cm/s | 72% | 110% |  | E (501 ≤ E ≤ 10.000) |  |  |  |  | 101 to 500 nM | 
7 | CN(c1ccc(-c2cc3ccn(C)c(=O)c3s2)nn1)[C@H]1C[C@@H]2CC[C@@H](N2)[C@H]1F (single isomer, unassigned) [Compound 67B] | 86 | 0.47 ×10⁻⁶ cm/s | 40.9 ×10⁻⁶ cm/s | 91% | 96% | E (501 ≤ E ≤ 10.000) | E (501 ≤ E ≤ 10.000) |  |  |  |  |  | 
8 | CN(c1ccc(-c2ccc(Oc3cnn(C)c3)cc2O)nn1)[C@@H]1C[C@H]2CC[C@H](N2)[C@@H]1F (single isomer, unassigned) [Compound 91A] | 15 | 4.19 ×10⁻⁶ cm/s | 62.8 ×10⁻⁶ cm/s | 84% | 82% |  | E (501 ≤ E ≤ 10.000) |  |  |  |  | 101 to 500 nM | 
9 | CN(c1ccc(-c2ccc(C(F)F)cc2O)nn1)[C@H]1C[C@@H]2CC[C@@H](N2)[C@H]1F (single isomer, unassigned) [Compound 120B] | 5 | 5.84 ×10⁻⁶ cm/s | 27.3 ×10⁻⁶ cm/s | 60% | 76% |  |  | E (501 ≤ E ≤ 10.000) | E (501 ≤ E ≤ 10.000) |  |  |  | 
10 | CN(c1ccc(-c2cc3ncn(CC(F)(F)F)c(=O)c3cc2O)nn1)[C@@H]1C[C@H]2CC(F)(F)[C@@H](C1)N2C (single isomer, unassigned) [Compound 110A] | 4 | 11 ×10⁻⁶ cm/s | 44.4 ×10⁻⁶ cm/s | 80% | 92% |  |  | E (501 ≤ E ≤ 10.000) | E (501 ≤ E ≤ 10.000) |  |  |  | 
11 | CN(C)C(=O)c1cc(O)c(-c2ccc(N(C)[C@@H]3C[C@H]4CC[C@H](N4)[C@@H]3F)nn2)cc1F (single isomer, unassigned) [Compound 53A] | 127 | 0.32 ×10⁻⁶ cm/s | 41 ×10⁻⁶ cm/s | 96% | 114% | E (501 ≤ E ≤ 10.000) | E (501 ≤ E ≤ 10.000) |  |  |  |  |  | 
12 | CN(C)C(=O)c1cc(O)c(-c2ccc(N(C)[C@H]3C[C@@H]4CC[C@H]([C@H]3F)N4C)nn2)cc1F (single isomer, unassigned) [Compound 104B] | 56 | 0.89 ×10⁻⁶ cm/s | 50.2 ×10⁻⁶ cm/s | 99% | 105% |  |  | E (501 ≤ E ≤ 10.000) | E (501 ≤ E ≤ 10.000) |  |  |  | 
13 | CN(c1ccc(-c2ccc(C3CC3)cc2O)nn1)[C@H]1C[C@@H]2CC[C@@H](N2)[C@H]1F (single isomer, unassigned) [Compound 31B] | 4 | 7.08 ×10⁻⁶ cm/s | 27 ×10⁻⁶ cm/s | 43% | 74% | E (501 ≤ E ≤ 10.000) | E (501 ≤ E ≤ 10.000) |  |  |  |  |  | 
14 | CN(c1ccc(-c2cc(C#N)ccc2O)nn1)[C@@H]1C[C@H]2CC[C@H](N2)[C@@H]1F (single isomer, unassigned) [Compound 70A] | 19 | 3.17 ×10⁻⁶ cm/s | 60.2 ×10⁻⁶ cm/s | 86% | 89% |  | E (501 ≤ E ≤ 10.000) |  |  |  |  | 101 to 500 nM | 
15 | CN1[C@H]2CC[C@@H]1[C@@H](F)[C@@H](N(c1ccc(-c3cc4oc(C(=O)N5CCC5)cc4cc3O)nn1)C1CC1)C2 (single isomer, unassigned) [Compound 92B] | 45 | 1.16 ×10⁻⁶ cm/s | 52.3 ×10⁻⁶ cm/s | 94% | 105% |  |  |  |  |  |  | 101 to 500 nM | 101 to 500 nM
16 | Cc1nc2cc(-c3ccc(N(C)[C@H]4C[C@@H]5CC[C@H]([C@H]4F)N5C)nn3)c(O)cc2c(=O)n1CC(F)(F)F (single isomer, unassigned) [Compound 130B] | 94 | 0.77 ×10⁻⁶ cm/s | 72.2 ×10⁻⁶ cm/s | 107% | 110% |  |  | E (501 ≤ E ≤ 10.000) | E (501 ≤ E ≤ 10.000) |  |  |  | 
17 | CN(c1ccc(-c2cc3ncn(CC(F)(F)F)c(=O)c3cc2O)nn1)[C@H]1C[C@@H]2CC(F)(F)[C@H](C1)N2C (single isomer, unassigned) [Compound 110B] | 4 | 11.7 ×10⁻⁶ cm/s | 47.4 ×10⁻⁶ cm/s | 86% | 93% |  |  | E (501 ≤ E ≤ 10.000) | E (501 ≤ E ≤ 10.000) |  |  |  | 
18 | CN(c1ccc(-c2cnc(C#N)cc2O)nn1)[C@@H]1C[C@H]2CC[C@H](N2)[C@@H]1F (single isomer, unassigned) [Compound 71A] | 7 | 3.87 ×10⁻⁶ cm/s | 26.2 ×10⁻⁶ cm/s | 88% | 92% | E (501 ≤ E ≤ 10.000) | E (501 ≤ E ≤ 10.000) |  |  |  |  |  | 
19 | CN(C)C(=O)c1cc2cc(O)c(-c3ccc(N(C4CC4)[C@@H]4C[C@H]5CC[C@H](N5)[C@@H]4F)nn3)cc2o1 [Compound 86A, 6-(6-(cyclopropyl((1S,2S,3R,5R)-2-fluoro-8-azabicyclo[3.2.1]octan-3-yl)amino)pyridazin-3-yl)-5-hydroxy-N,N-dimethylbenzofuran-2-carboxamide] | 60 | 1.05 ×10⁻⁶ cm/s | 62.5 ×10⁻⁶ cm/s | 93% | 90% | E (501 ≤ E ≤ 10.000) | E (501 ≤ E ≤ 10.000) |  |  |  |  |  | 
20 | CN(c1ccc(-c2ccccc2O)nn1)[C@H]1C[C@@H]2CC[C@@H](N2)[C@H]1F (single isomer, unassigned) [Compound 119B] | 9 | 6.13 ×10⁻⁶ cm/s | 58.2 ×10⁻⁶ cm/s | 93% | 95% |  |  | E (501 ≤ E ≤ 10.000) | E (501 ≤ E ≤ 10.000) |  |  |  | 
